pIC50: −log10 of the molar value.
How the values were obtained:
[1] = Metabolism of 14C-parent in dog liver microsomes; type: in vitro ADME; conditions: 20 μM 14C-parent, NADPH, 30 minutes, 37° C.; HPLC radiochromatogram peak
Method: (§1) Human (HL-mix 12), rat, monkey and dog liver microsomes were prepared by differential centrifugation using standard procedures. Prior to use, liver microsomes were thawed on ice and reconstituted using 100 mM potassium phosphate pH 7.4. [^14C]-(3-{[4-tert-butyl-benzyl)-(pyridine-3-sulfonyl)-amino]-methyl}-phenoxy)-acetic acid was dissolved 100 mM potassium phosphate pH 7.4 at a final substrate concentration of 20 μM. Samples were pre-incubated for 3 min with microsomes (CYP 450; 0.5 μM) at 37° C. in a shaking water bath. Incubations were initiated with the addition of 100 μl cofactor (1.1 mM NADPH, 10 mM MgCl2) per 1 ml of incubation mixture. Incubations were stopped after 30 minutes by the addition of an equal volume of cold acetonitrile.
(§2) Metabolite quantification was performed by measuring the areas of individually separated HPLC peaks using the β-RAM (IN/US, Win-flow). […]
(§3) Identification of the metabolites was performed using a Finnigan TSQ 7000 triple quadrupole mass spectrometer equipped with an API-2 electrospray interface. […] The β-RAM response was recorded as a real time analog signal by the MS data collection system. The collected data from the radioactivity and MS detectors were separated by the dwell volume of flow from the MS to the radioactivity detector (corresponding to a dwell time of about 0.2 min.). […]

Monkey hepatocytes = test: Metabolism of parent in monkey hepatocytes; type: in vitro ADME, Cynomolgus monkey; conditions: 20 μM parent, 2 million cells per ml, 4 hours, 37° C.; mobile phase pH 5.0
Method: (§4) Human hepatocytes were generated from a mix of 3 livers. Rat and monkey hepatocytes were generated using Sprague Dawley rats (12 livers), Cynomolgus monkey (1 liver) and Beagle dogs (2 livers). Cryopreserved hepatocytes were suspended in William's E media with 10% FBS to a viable count of 2 million cells per ml and gassed with 95/5 O2/CO2 initially and every hour of incubations. After the addition of 20 μM (3-{[4-tert-butyl-benzyl)-(pyridine-3-sulfonyl)-amino]-methyl}-phenoxy)-acetic acid to a 25 ml Erlenmeyer flask, 2.5 ml of hepatocytes suspension was added and incubated for 4 hours at 37° C. in a shaking water bath.
(§5) Metabolite quantification was performed by measuring the areas of individually separated HPLC peaks using the β-RAM (IN/US, Win-flow). The β-RAM provided integrated peak representation printouts in CPM as well as the percentage of the radiolabeled material. The β-RAM was operated using a solid scintillation cell. […]
as §3

Rat hepatocytes = test: Metabolism of parent in rat hepatocytes; type: in vitro ADME, Sprague Dawley rats; conditions: 20 μM parent, 2 million cells per ml, 4 hours, 37° C.
Method: as §4, §5, §3

Dog hepatocytes = test: Metabolism of parent in dog hepatocytes; type: in vitro ADME, Beagle dogs; conditions: 20 μM parent, 2 million cells per ml, 4 hours, 37° C.
Method: as §4
Metabolite quantification was performed by measuring the areas of individually separated HPLC peaks using the β-RAM (IN/US, Win-flow). The β-RAM provided integrated peak representation printouts in CPM as well as the percentage of the radiolabeled material. The β-RAM was operated using a solid scintillation cell.
Incubations were stopped by the addition of an equal volume of cold acetonitrile, sonicated and centrifuged at 3000 rpm for 10 minutes. The supernatants were removed and evaporated to dryness under nitrogen. Residues were reconstituted in 50:50 (acetonitrile: water) and aliquots (50-90 μl) were injected onto the HPLC system for analysis.
The HPLC system consisted of a HP-1100 solvent delivery system, a HP-1100 membrane degasser, a HP-1100 autoinjector (Hewlett Packard) and an IN/US radioactive monitor (β-RAM). Chromatography was performed on a YMC AQ (C-18) column (4.6 mm×150 mm, 3 μm) (Waters, Milford, Mass.). […]
as §3

[2] = target: T1, rat EP2 prostaglandin E2 receptor (Rattus norvegicus, UniProt Q62928); test: Rat EP2 receptor binding assay (displacement of 3H-prostaglandin E2); conditions: 293S cell membranes expressing rat EP2, 3 nM 3H-prostaglandin E2, 1 hour at 25° C.
T1 construct: This full length receptor is used to prepare 293S cells expressing the EP2 receptor; expressed in transfected cells; membranes used in the assay
Source text: Rat EP2 Recptor Binding Assay
Assay for Binding to Prostaglandin E2 Receptors
The full length EP2 receptor is made as disclosed in Nemoto et al., Prostaglandins and other Lipid Mediators, 1997, 54, 713-725. This full length receptor is used to prepare 293S cells expressing the EP2 receptor.
293S cells expressing the rat EP2 prostaglandin E2 receptor are generated according to methods known to those skilled in the art. Typically, PCR (polymerase chain reaction) primers corresponding to the 5′ and 3′ ends of the published full length receptor are made according to the well known methods disclosed above and are used in an RT-PCR reaction using the total RNA from rat kidney as a source. […]
Membrane Preparation: All operations are performed at 4° C. […] Pelleted membranes are resuspended to 3-10 mg protein per ml, protein concentration being determined of the method of Bradford [Bradford, M., Anal. Biochem., 72, 248 (1976)]. […]
Binding Assay: Frozen membranes prepared as above are thawed and diluted to 1 mg protein per ml in Buffer A above. […] To determine the amount of ^3H-prostaglandin bound to the membranes, the dried filters are placed into plastic bags with scintillation fluid and counted in a LKB 1205 Betaplate reader (Wallac, Gaithersburg, Md.). […]

[3] = Metabolism of 14C-parent in monkey liver microsomes; type: in vitro ADME; conditions: 20 μM 14C-parent, NADPH, 30 minutes, 37° C.; HPLC radiochromatogram peak
Method: as §1, §2, §3

[4] = Metabolism of 14C-parent in rat liver microsomes; type: in vitro ADME; conditions: 20 μM 14C-parent, NADPH, 30 minutes, 37° C.; HPLC radiochromatogram peak
Method: as §1, §2, §3

T1 sequence (Q62928 whole entry): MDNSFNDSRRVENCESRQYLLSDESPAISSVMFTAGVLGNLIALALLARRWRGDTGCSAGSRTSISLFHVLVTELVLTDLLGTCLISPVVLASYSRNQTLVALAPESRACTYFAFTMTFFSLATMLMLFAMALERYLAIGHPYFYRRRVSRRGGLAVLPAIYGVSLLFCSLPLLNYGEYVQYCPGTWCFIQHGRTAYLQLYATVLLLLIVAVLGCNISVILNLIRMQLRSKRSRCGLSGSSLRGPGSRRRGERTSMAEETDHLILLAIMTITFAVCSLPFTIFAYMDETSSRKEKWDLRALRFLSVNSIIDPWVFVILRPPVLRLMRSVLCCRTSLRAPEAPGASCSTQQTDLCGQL

Row | Compound | Percent of Radioactivity, Rat hepatocytes (Rat hepatocytes) | Percent of Radioactivity, Dog hepatocytes (Dog hepatocytes) | also measured
1 | CC(C)(C)c1ccc(CNS(=O)(=O)c2cccnc2)cc1 [Metabolite M20, pyridine-3-sulfonic acid 4-tert-butyl-benzylamide] | – | – | Percent of Radioactivity, Dog liver microsomes [1]: 1.96%
2 | CC(C)(CO)c1ccc(CNS(=O)(=O)c2cccnc2)cc1 [Metabolite M21, pyridine-3-sulfonic acid 4-(2-hydroxy-1,1-dimethyl-ethyl)-benzylamide] | 8.91% | 7.92% | Percent of Radioactivity, Monkey hepatocytes (Monkey hepatocytes): 4.53%
3 | CC(C)(C(=O)O)c1ccc(CN(Cc2cccc(OCC(=O)O)c2)S(=O)(=O)c2cccnc2)cc1 [Metabolite M3, 2-(4-{[(3-carboxymethoxy-benzyl)-(pyridine-3-sulfonyl)-amino]-methyl}-phenyl)-2-methyl-propionic acid] | – | – | pIC50 [2]: 6.12
4 | dihydroxy (3-{[4-tert-butyl-benzyl)-(pyridine-3-sulfonyl)-amino]-methyl}-phenoxy)-acetic acid [Metabolite M2] | 15.1% | 6.59% | –
5 | CC(C)(C)c1ccc(CN(Cc2ccc(O)c(OCC(=O)O)c2)S(=O)(=O)c2cccnc2)cc1 [Metabolite M12, (5-{[(4-tert-butyl-benzyl)-(pyridine-3-sulfonyl)-amino]-methyl}-hydroxy-phenoxy)-acetic acid] | – | 15.0% | –
6 | CC(C)(C(=O)O)c1ccc(CNS(=O)(=O)c2cccnc2)cc1 [Metabolite M11, 2-methyl-2-{4-[(pyridine-3-sulfonylamino)-methyl]-phenyl}-propionic acid] | – | – | Percent of Radioactivity, Monkey liver microsomes [3]: 7.97%; Percent of Radioactivity, Rat liver microsomes [4]: 20.7%
